Measured values as given in the supplement of paper PMC10307832.

Assays:
Experiment in all cases: relative viability (nuclei count vs DMSO), 5 days (fraction); higher = more cells survive
[1] = compound: C1CN(CCN1)C2=CC=C(C=C2)C3=CN4C(=C(C=N4)C5=CC=NC6=CC=CC=C56)N=C3 [DM3189] + CS(=O)(=O)N1CCN(Cc2cc3nc(-c4cccc5[nH]ncc45)nc(N4CCOCC4)c3s2)CC1 [Pictilisib] (partner 1 µM)
Summary of the method: (§1)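 Five library-drug doses in √10 steps were combined with a fixed anchor-drug dose, or a single drug was given alone, by pin tool to lung cancer cell lines in 1536-well plates the day after seeding. Nuclei were stained and counted after 5 days. Relative viability is the nuclei count in treated wells over that in vehicle wells, taken as the median of duplicate plates.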

[2] = compound: C1CN(CCN1)C2=CC=C(C=C2)C3=CN4C(=C(C=N4)C5=CC=NC6=CC=CC=C56)N=C3 [DM3189] + CC(=O)c1c(C)c2cnc(Nc3ccc(N4CCNCC4)cn3)nc2n(C2CCCC2)c1=O [Palbociclib] (partner 0.5 µM)
Summary of the method: as §1

[3] = compound: C1CN(CCN1)C2=CC=C(C=C2)C3=CN4C(=C(C=N4)C5=CC=NC6=CC=CC=C56)N=C3 [DM3189] + CC(=O)Nc1cccc(-n2c(=O)n(C3CC3)c(=O)c3c(Nc4ccc(I)cc4F)n(C)c(=O)c(C)c32)c1 [Trametinib] (partner 0.02 µM)
Summary of the method: as §1

[4] = compound: C1CN(CCN1)C2=CC=C(C=C2)C3=CN4C(=C(C=N4)C5=CC=NC6=CC=CC=C56)N=C3 [DM3189] + CCNC(=O)c1noc(-c2cc(C(C)C)c(O)cc2O)c1-c1ccc(CN2CCOCC2)cc1 [Luminespib] (partner 0.01 µM)
Summary of the method: as §1

[5] = compound: C1CN(CCN1)C2=CC=C(C=C2)C3=CN4C(=C(C=N4)C5=CC=NC6=CC=CC=C56)N=C3 [DM3189] + CS(=O)(=O)CCNCc1ccc(-c2ccc3ncnc(Nc4ccc(OCc5cccc(F)c5)c(Cl)c4)c3c2)o1 [Lapatinib] (partner 2 µM)
Summary of the method: as §1

Row | Cell Line | relative viability ([1]; first compound 0.08 µM) | relative viability ([1]; first compound 0.253 µM) | relative viability ([1]; first compound 0.8 µM) | relative viability ([1]; first compound 2.53 µM) | relative viability ([2]; first compound 0.08 µM) | relative viability ([2]; first compound 0.253 µM) | relative viability ([2]; first compound 2.53 µM) | relative viability ([3]; first compound 0.08 µM) | relative viability ([3]; first compound 0.253 µM) | relative viability ([3]; first compound 2.53 µM) | relative viability ([4]; first compound 0.08 µM) | relative viability ([4]; first compound 0.253 µM) | relative viability ([4]; first compound 0.8 µM) | relative viability ([4]; first compound 2.53 µM) | relative viability ([5]; first compound 0.08 µM) | relative viability ([5]; first compound 0.253 µM) | relative viability ([5]; first compound 0.8 µM) | relative viability ([5]; first compound 2.53 µM) | relative viability ([2]; first compound 0.8 µM) | relative viability ([3]; first compound 0.8 µM)
1 | NCI-H1395 | 0.625 | 0.618 | 0.459 | 0.562 | 0.528 | 0.593 | 0.605 | 0.902 | 1.03 | 1.01 | 0.662 | 0.589 | 0.492 | 0.646 | 1.1 | 0.92 | 0.724 | 0.896 |  | 
2 | NCI-H1437 | 0.425 | 0.438 | 0.411 | 0.537 | 0.359 | 0.364 | 0.388 | 0.63 | 0.577 | 0.696 | 1.15 | 1.1 | 1.1 | 1.1 | 0.793 | 0.767 | 0.765 | 0.852 | 0.339 | 0.65
3 | NCI-H1650 | 0.773 | 0.582 | 0.526 | 0.477 | 0.407 | 0.292 | 0.309 | 0.749 | 0.608 | 0.738 | 0.183 | 0.183 | 0.188 | 0.197 | 0.838 | 0.806 | 0.71 | 0.777 | 0.349 | 0.677
4 | NCI-H1651 | 0.713 | 0.578 | 0.467 | 0.468 | 0.543 | 0.554 | 0.574 | 0.867 | 0.793 | 0.937 | 0.811 | 0.836 | 0.779 | 1.01 | 1.08 | 0.852 | 0.826 | 0.984 | 0.582 | 0.813
5 | NCI-H1666 | 0.439 | 0.595 | 0.508 | 0.437 | 0.553 | 0.637 |  | 1.03 | 0.951 |  | 1.15 | 0.983 | 1.05 | 1.07 | 0.789 | 0.736 | 0.51 | 0.712 | 0.656 | 0.863
6 | NCI-H1734 | 0.541 | 0.417 | 0.442 | 0.383 | 0.34 | 0.344 | 0.294 | 0.651 | 0.623 | 0.685 | 0.202 | 0.226 | 0.207 | 0.199 | 1.07 | 0.987 | 0.961 | 0.939 | 0.283 | 0.652
7 | NCI-H1755 | 0.51 | 0.417 | 0.334 | 0.399 | 0.467 | 0.431 | 0.396 | 0.786 | 0.801 | 0.836 | 0.384 | 0.476 | 0.425 | 0.419 | 1.07 | 0.937 | 0.811 | 0.936 | 0.403 | 0.725
8 | NCI-H1792 | 0.228 | 0.248 | 0.165 | 0.271 | 0.569 | 0.675 | 0.609 | 0.538 | 0.482 | 0.62 | 0.416 | 0.552 | 0.445 | 0.328 | 0.973 | 0.919 | 0.674 | 0.431 | 0.716 | 0.438
